Data as given in ChEMBL document CHEMBL1201862, “PubChem BioAssay data set” (2004).
Values joined by “and” are separate entries in the source; they are usually repeats but may differ in a detail not shown here. Equal entries are not always repeated. Active and inactive are the calls of the source.

Tests used:
Phospholipase D1 = Phospholipase D1 (Homo sapiens, UniProt Q13393); test: cellular phospholipase D1 inhibition IC50 – cell-based, dose response (AID 602151); assay type: functional;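 further: cellular PLD1 assay in Calu-1 cells stimulated with PMA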
Chain of Phospholipase D1 (Q13393 whole entry): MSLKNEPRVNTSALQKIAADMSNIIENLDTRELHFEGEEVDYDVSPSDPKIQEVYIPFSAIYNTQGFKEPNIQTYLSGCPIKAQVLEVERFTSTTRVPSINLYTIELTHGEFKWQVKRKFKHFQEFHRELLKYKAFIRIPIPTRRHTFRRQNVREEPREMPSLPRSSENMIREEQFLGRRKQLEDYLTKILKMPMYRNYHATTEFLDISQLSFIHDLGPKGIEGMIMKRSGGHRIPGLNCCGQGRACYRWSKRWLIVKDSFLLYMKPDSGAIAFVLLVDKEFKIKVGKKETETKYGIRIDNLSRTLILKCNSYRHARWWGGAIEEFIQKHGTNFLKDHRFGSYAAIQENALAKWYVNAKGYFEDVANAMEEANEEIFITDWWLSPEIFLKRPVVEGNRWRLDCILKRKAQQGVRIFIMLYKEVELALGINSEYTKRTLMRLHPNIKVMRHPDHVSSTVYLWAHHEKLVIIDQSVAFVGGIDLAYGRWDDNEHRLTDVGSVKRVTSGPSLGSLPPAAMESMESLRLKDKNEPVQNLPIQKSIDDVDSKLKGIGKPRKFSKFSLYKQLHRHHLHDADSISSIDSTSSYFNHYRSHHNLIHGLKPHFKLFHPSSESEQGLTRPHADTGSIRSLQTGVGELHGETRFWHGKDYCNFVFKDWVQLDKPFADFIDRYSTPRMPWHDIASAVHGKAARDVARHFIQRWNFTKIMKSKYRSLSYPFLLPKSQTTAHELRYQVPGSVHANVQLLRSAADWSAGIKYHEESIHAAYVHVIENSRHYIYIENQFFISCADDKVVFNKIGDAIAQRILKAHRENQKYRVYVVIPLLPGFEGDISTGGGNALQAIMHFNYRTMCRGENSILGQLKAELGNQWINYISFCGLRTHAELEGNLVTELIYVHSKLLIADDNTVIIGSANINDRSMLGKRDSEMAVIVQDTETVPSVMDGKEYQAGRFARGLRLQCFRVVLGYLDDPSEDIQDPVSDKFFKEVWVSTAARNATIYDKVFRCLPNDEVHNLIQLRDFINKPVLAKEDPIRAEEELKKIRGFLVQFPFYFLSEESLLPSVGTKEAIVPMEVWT

Phospholipase D2 = Phospholipase D2 (Homo sapiens, UniProt O14939); test: cellular phospholipase D2 inhibition IC50 – cell-based, dose response (AID 602147); assay type: functional;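 further: cellular assay in HEK293 cells overexpressing GFP-tagged PLD2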
Chain of Phospholipase D2 (O14939 whole entry): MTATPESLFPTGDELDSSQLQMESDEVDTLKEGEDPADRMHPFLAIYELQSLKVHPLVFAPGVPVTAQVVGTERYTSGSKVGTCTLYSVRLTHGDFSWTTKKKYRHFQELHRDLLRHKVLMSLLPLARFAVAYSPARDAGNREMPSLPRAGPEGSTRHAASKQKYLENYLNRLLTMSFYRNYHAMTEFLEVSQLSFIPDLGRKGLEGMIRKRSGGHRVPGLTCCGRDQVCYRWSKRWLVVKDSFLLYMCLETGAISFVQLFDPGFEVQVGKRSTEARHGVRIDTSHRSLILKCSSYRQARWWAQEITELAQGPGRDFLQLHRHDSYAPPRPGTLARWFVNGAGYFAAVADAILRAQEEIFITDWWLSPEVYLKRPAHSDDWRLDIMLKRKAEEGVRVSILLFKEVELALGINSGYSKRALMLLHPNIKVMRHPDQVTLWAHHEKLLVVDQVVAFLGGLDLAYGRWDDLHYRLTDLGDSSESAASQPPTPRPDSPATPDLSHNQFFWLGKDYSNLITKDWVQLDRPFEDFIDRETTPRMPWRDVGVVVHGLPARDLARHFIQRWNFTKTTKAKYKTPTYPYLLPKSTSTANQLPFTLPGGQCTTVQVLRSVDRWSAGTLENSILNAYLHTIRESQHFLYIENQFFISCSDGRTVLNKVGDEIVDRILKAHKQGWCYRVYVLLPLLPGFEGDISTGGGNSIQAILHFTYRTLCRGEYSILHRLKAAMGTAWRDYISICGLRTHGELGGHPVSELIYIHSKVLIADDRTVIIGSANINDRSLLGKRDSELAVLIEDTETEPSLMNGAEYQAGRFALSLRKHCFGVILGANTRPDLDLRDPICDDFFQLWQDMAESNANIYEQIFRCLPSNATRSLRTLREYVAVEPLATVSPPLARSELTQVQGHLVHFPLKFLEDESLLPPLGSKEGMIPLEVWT

[1] = molecular target: Voltage-gated inwardly rectifying potassium channel KCNH2 (Homo sapiens, UniProt Q12809); conditions: Potency;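 further: confirmatory quantitative high-throughput screen measuring inhibition of hERG channel activity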
Cytochrome P450 2C19 = Cytochrome P450 2C19 (Homo sapiens, UniProt P33261); test: Cytochrome panel assay with activity outcomes. Panel member name: p450-cyp2c19 Compounds with AC50 equal or less than 10 uM are considered active; assay type: functional; conditions: read-out: AC50
Chain of Cytochrome P450 2C19 (P33261 whole entry): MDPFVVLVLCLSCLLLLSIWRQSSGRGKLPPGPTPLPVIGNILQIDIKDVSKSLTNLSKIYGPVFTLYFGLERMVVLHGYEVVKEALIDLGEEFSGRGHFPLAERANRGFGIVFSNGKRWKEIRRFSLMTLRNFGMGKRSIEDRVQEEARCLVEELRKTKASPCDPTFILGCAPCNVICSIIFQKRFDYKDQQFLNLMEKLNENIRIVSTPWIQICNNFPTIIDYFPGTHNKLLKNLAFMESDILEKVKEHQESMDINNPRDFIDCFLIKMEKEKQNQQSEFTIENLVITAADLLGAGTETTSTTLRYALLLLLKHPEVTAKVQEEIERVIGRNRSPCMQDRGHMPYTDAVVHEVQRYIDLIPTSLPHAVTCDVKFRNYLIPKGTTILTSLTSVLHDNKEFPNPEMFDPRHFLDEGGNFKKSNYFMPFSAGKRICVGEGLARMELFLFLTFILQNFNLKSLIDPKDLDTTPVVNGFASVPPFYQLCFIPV

Cytochrome P450 2D6 = Cytochrome P450 2D6 (Homo sapiens, UniProt P10635);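 further: CYP2D6 member of a cytochrome P450 panel assay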
Chain of Cytochrome P450 2D6 (P10635 whole entry): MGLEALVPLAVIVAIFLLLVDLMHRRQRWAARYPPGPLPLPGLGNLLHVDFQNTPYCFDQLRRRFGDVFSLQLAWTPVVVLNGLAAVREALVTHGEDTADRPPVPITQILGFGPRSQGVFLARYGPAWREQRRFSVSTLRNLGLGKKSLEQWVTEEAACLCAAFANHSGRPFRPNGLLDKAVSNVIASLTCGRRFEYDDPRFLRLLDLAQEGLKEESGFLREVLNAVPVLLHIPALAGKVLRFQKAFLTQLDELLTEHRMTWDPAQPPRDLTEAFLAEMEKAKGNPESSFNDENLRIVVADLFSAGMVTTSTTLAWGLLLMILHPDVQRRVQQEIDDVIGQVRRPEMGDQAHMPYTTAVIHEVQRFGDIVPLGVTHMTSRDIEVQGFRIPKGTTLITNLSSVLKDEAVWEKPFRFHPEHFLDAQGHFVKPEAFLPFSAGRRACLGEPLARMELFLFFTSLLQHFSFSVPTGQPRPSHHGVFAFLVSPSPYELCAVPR

[2] = molecular target: Serine/threonine-protein phosphatase (Candida dubliniensis (strain CD36 / CBS 7987 / NCPF 3949 / NRRLY-17841) (Yeast), UniProt B9W6M3); test: blockers of CaCl2-induced CDRE-lacZ signaling – S. cerevisiae, luminescence, secondary, dose response (AID 2388); assay type: functional, cell-based;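 further: yeast reporter cells carrying a calcineurin-responsive lacZ construct stimulated with calcium chloride; luminescent beta-galactosidase reporter signal in whole cells rather than isolated phosphatase activity; potency for inhibition where a drop in reporter signal means calcineurin blockade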
Chain of Serine/threonine-protein phosphatase (B9W6M3 whole entry): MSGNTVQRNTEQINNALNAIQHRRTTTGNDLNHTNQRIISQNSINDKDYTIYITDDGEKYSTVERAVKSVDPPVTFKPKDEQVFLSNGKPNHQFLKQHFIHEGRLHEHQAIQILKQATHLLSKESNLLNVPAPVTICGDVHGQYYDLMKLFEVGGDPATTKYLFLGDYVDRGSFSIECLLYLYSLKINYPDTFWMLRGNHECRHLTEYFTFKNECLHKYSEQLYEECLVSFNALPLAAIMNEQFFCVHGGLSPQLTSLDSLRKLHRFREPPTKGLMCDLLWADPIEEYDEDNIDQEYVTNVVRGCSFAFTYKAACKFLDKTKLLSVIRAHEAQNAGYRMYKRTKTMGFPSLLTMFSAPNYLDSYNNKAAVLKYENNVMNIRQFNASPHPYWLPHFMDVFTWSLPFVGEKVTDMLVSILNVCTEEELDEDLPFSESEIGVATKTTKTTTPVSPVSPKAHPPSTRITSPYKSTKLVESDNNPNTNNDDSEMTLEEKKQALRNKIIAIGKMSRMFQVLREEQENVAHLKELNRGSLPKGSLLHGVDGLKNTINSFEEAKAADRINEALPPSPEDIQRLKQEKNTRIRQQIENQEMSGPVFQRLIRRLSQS

[3] = molecular target: ATP-dependent molecular chaperone HSP82 (Candida albicans (strain WO-1) (Yeast), UniProt C4YTQ8); test: steroid-induced GRE reporter decrease in yeast – S. cerevisiae, luminescence, Hsp90 inhibitor project, dose response (AID 2400); assay type: functional, cell-based;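 further: beta-galactosidase luminescence from glucocorticoid response element reporter as proxy for Hsp90 function; inhibitor potency where signal loss means Hsp90 inhibition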
Chain of ATP-dependent molecular chaperone HSP82 (C4YTQ8 whole entry): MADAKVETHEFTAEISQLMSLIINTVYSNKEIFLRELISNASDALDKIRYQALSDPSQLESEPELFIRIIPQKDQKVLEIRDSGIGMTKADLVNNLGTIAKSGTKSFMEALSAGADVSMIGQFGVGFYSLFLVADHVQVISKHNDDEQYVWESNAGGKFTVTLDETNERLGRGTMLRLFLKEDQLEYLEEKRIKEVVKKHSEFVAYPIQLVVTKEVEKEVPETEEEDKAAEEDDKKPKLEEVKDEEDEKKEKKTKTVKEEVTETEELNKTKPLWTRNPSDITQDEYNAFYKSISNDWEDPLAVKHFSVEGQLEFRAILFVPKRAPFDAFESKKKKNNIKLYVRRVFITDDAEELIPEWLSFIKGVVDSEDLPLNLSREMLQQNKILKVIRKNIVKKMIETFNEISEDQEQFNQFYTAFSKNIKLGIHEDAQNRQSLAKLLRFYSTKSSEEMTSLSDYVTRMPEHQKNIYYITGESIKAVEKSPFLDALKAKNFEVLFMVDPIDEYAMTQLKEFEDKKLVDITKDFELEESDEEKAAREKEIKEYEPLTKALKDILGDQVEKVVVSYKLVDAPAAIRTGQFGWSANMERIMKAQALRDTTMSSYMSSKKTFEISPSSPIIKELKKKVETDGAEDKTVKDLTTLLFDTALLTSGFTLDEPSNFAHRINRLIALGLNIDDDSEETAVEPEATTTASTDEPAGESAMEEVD

Cytochrome P450 3A4 = Cytochrome P450 3A4 (Homo sapiens, UniProt P08684); conditions: Potency;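 further: confirmatory qHTS run detecting inhibitors and substrates of CYP3A4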
Chain of Cytochrome P450 3A4 (P08684 whole entry): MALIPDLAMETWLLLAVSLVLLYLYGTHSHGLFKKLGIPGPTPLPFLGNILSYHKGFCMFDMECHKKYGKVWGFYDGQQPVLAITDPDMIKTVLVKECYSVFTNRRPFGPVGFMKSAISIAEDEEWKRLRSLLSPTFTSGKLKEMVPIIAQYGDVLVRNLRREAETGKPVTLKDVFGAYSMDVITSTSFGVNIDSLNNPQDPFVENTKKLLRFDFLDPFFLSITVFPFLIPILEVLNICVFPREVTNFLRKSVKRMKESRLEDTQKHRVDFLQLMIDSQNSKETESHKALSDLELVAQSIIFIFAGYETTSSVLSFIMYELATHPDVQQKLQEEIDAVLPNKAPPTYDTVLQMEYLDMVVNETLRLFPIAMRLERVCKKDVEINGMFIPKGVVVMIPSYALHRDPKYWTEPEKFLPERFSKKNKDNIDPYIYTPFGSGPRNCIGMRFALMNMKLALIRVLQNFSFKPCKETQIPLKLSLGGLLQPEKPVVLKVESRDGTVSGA

[4] = fluconazole-exposed Candida albicans growth modulators – fluorescence, retest, confirmation (AID 2467); assay type: functional, cell-based

SMILES: C[C@@H](CN1CCC(n2c(=O)[nH]c3cc(I)ccc32)CC1)NC(=O)C1CC1c1ccccc1 (stereo partly specified)
- IC50 (Phospholipase D1): 0.021 µM (active)
- IC50 (Phospholipase D2): 6.5 µM (active)

SMILES: CC(C)[C@@H](CN1CCC2(CC1)C(=O)NCN2c1ccccc1)NC(=O)c1ccc2ccccc2c1
- IC50 (Phospholipase D1): 0.14 µM (active)
- IC50 (Phospholipase D2): 1.5 µM (active)

SMILES: O=c1oc(Cl)c(Cl)c2ccccc12
- AC50 [1]: 2.82 µM (inconclusive)
- AC50 (Cytochrome P450 2C19): 25.1 µM (inconclusive)
- AC50 (Cytochrome P450 2D6): 31.6 µM (inconclusive)

SMILES: C[C@]12CC[C@H](O)C[C@@H]1CC[C@@H]1[C@@H]2CC[C@]2(C)C(=O)CC[C@@H]12 [EPIANDROSTERONE]
- EC50 [2]: > 180 µM (inactive)
- EC50 [3]: 24.2 µM (active)
- AC50 (Cytochrome P450 3A4): 20 µM (inconclusive)
- EC50 [4]: 877 nM (active) and 1.15 µM (active)
